For 71 compounds, EC50, IC50 and outcome results are on record in PubChem BioAssay AID179 (DTP/NCI, 2004).

Active and inactive are the calls of the source.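 How the source made its calls: active means compounds giving half or more protection of infected cells from virus-caused growth loss, again on retest; inactive means the rest.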 Where only a bound is given, the exact number is not on record here.

The test system of the test is CEM cells HIV-1 protection, formazan growth assay. The test is described as follows: NCI AIDS Antiviral Assay. The settings on record: for IC50: measured here: growth of uninfected CEM cells. In a few lines:
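Protection of CEM cells against HIV-1 was scored from cell growth (soluble formazan) across five concentrations, with parallel uninfected cells. Lack of protection may reflect toxicity.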

On to `CCOC(=O)CCC(NC(=O)c1ccc(N=Cc2nc3cc(C(F)(F)F)ccc3nc2-c2ccccc2)cc1)C(=O)OCC` (stereo not drawn), for which the EC50 is > 5.89 µM and the IC50 is > 5.89 µM.
Take `O=S(=O)(Nc1nc2ccccc2nc1Nc1ccc2ccccc2c1)c1ccccc1`: the EC50 is > 200 µM and the IC50 came to 10.5 µM.
In the same order, the values of `Cc1nccc2c(C)c3sc4ccccc4c3cc12` are > 91.2 µM and 2.14 µM.
The corresponding values for `CSc1c(C#N)c(=O)[nH]c2n[nH]c(C)c12` are > 200 µM and > 200 µM.
With `CC(C)(C)OC(=O)NC(C)(C)C(=O)NCCC(=O)O`, the EC50 was > 200 µM and the IC50 was > 200 µM.
As to `CC1(C)OC[C@@H](C[C@H](O)COCc2ccccc2)O1`, the EC50 was > 200 µM and the IC50 was > 200 µM.
As to `CC1=C(C(=O)Nc2ccccc2C)C(c2ccc(Cl)cc2)C(C(=O)Nc2ccccc2C)=C(C)N1`, the EC50 was > 2.95 µM and the IC50 was > 2.95 µM.
With `CCOC(=O)C1=C(O)c2ccccc2S(=O)(=O)N1C` (tested in a mixture with another compound), the EC50 is > 123 µM and the IC50 was 110 µM.
`CCO[C@H]1OC(=O)[C@@H]2C(c3ccc([N+](=O)[O-])cc3)=NO[C@H]12`: the EC50 was > 46.8 µM and the IC50 was > 46.8 µM.
In the case of `O=C(CC1=Nc2nnc(-c3nnc4n3C(=O)C(CC(=O)c3cccnc3)=N4)n2C1=O)c1cccnc1`, the EC50 is > 15.1 µM and the IC50 is > 15.1 µM.
As to `O=C(CN1CCN(Cc2ccccc2)CC1)N1CCCn2c1nc1ccccc1c2=O`, the EC50 was > 200 µM and the IC50 was > 200 µM.
For the compound `CC(=O)Nc1ccc(NC(=O)c2cccc3c(Nc4ccc(S(=O)(=O)Nc5cc(C)on5)cc4)c4ccccc4nc23)cc1`, the EC50 was > 200 µM and the IC50 was found to be 23.4 µM.
In the same order, the values of `CC(=O)OC1COC(Nc2nc(N)n(C)c(=O)c2N=O)C(OC(C)=O)C1OC(C)=O` (stereo not drawn) are > 200 µM and > 200 µM.
For `CCCCC/C=C/C/C=C/CCCCCCCC(=O)OCC(COC1OC(CS(=O)(=O)O)C(O)C(O)C1O)OC(=O)CCCCCCC/C=C/C/C=C/CCCCC` (stereo not drawn), the EC50 is > 27.5 µM and the IC50 was > 27.5 µM.
On to `CC(C)OP(=O)(OC(C)C)/C(=N/Nc1ccccc1[N+](=O)[O-])NNC(=O)c1ccccc1`, for which the EC50 is > 1.17 µM and the IC50 is > 1.17 µM.
As to `COc1cc2c3cc1Oc1c(OC)c(OC)cc4c1[C@@H](Cc1ccc(O)c(c1)Oc1ccc(cc1)C[C@@H]3N(C)CC2)N(C)CC4`, the outcome was inactive.
Take `Cc1cc(N(CCC#N)CCC#N)ccc1/C(N=Nc1ccc(Cl)cc1)=N\NC(=O)c1ccccc1`: the EC50 is > 200 µM and the IC50 came out at 21.4 µM.
The corresponding values for `S=C1NC2(CCCCC2)NC12CCCCC2` are > 200 µM and > 200 µM.
In the same order, the values of `O=C1CCc2ccccc2O1` are > 1700 µM and 1410 µM.
As for `Cc1c(CN2CCN(C)CC2)c(O)c2c(=O)c3c(O)c(CN4CCN(C)CC4)c(O)c4c5c(O)c(CN6CCN(C)CC6)c(O)c6c(=O)c7c(O)c(CN8CCN(C)CC8)c(C)c8c1c2c(c34)c(c78)c65`, the EC50 is > 10.2 µM and the IC50 was > 10.2 µM.
With `O=c1[nH]nc2c3n[nH]c(=O)n3c3ccccc3n12`, the EC50 is > 14.8 µM and the IC50 is > 14.8 µM.
For the compound `C=CC[P@@]1(=O)O[C@H](c2ccccc2)C(C)N1C(C)C` (stereo partly drawn), the outcome was inactive.
For the compound `O=c1c2ncn(C3CCCO3)c2n(-c2ccccc2)c(=S)n1-c1ccccc1` (stereo not drawn), the EC50 is > 200 µM and the IC50 was > 200 µM.
`Clc1ccc(C2c3ccccc3-c3nc4ccccc4n32)cc1` (stereo not drawn): the EC50 was > 200 µM and the IC50 was > 200 µM.
In the case of `O=[N+]([O-])c1ccccc1S(=O)c1ccccc1` (stereo not drawn), the EC50 is 6.76 µM and the IC50 was found to be 22.4 µM.
In the same order, the values of `CC(C)=CCN1Cc2c(F)ccc3[nH]c(=S)n(c23)CC1C` (stereo not drawn) are 0.0398 µM and 70.8 µM.
In the same order, the values of `CN1c2ccccc2N(C(=O)c2ccc(Cl)cc2)C(CC(=O)O)c2cccn21` (stereo not drawn) are > 631 µM and 117 µM.
In the same order, the values of `O=S1(c2ccccc2)=NC(Nc2ccccc2)=Nc2ccccc21` (stereo not drawn) are > 36.3 µM and 30.2 µM.
With `O=C=NCCCCCCN1C(=O)N2C(c3ccccc3)N(CCCCCCN=C=O)C(=O)N2C1c1ccccc1` (stereo not drawn), the result was inactive.
Turning to `COc1cc(C)c(O)c(C[P+](c2ccccc2)(c2ccccc2)c2ccccc2)c1`, the EC50 was > 200 µM and the IC50 was 11.7 µM.
With `CCOC(=S)SCC(=O)c1cccc([N+](=O)[O-])c1`, the result was inactive.
Take `COC1C(OC(N)=O)C(O)C(Oc2ccc3c(O)c(NC(=O)c4ccc(O)c(CC=C(C)C)c4)c(=O)oc3c2C)OC1(C)C` (stereo not drawn): the EC50 is > 389 µM and the IC50 was determined as 79.4 µM.
In the same order, the values of `O=C(NNC1=NCCCN1)c1ccco1` are > 200 µM and > 200 µM.
In the same order, the values of `CCOC(C[C@H](O[Si](C)(C)C(C)(C)C)[C@H]1COC(=S)S1)OCC` are > 200 µM and 155 µM.
The corresponding values for `C1C2CC3C1C1CN3C21` (stereo not drawn) are > 724 µM and > 724 µM.
As for `COc1ccc(C(=O)O)c2c(=O)c3cccnc3[nH]c12`, the outcome was inactive.
With `O=C1NC(Cc2ccc([N+](=O)[O-])cc2)C(=O)N2CCCC12` (stereo not drawn), the EC50 is > 200 µM and the concentration for half-maximal inhibition (IC50) is > 200 µM.
As to `CSC(=NCCc1c[nH]c2ccccc12)NC#N`, the EC50 is > 200 µM and the IC50 is > 200 µM.
Take `CC(=O)O[C@]12CCC[C@H]1C1(O)C(O)CCC[C@H]12` (stereo partly drawn): the EC50 was > 200 µM and the IC50 was > 200 µM.
`C/C(CN1C(=O)c2ccccc2C1=O)=N\NS(=O)(=O)c1cccc(C(=O)O)c1`: the EC50 was > 309 µM and the IC50 was > 309 µM.
As to `COc1ccc(Nc2ccnc3cc(Cl)ccc23)cc1CCN`, the EC50 was > 89.1 µM and the IC50 is > 89.1 µM.
For the compound `Cc1ccc(NC(=O)c2cc(S(=O)(=O)Nc3n[nH]c(=O)n3-c3ccccc3)c(S)cc2Cl)cc1`, the EC50 was 42.7 µM and the IC50 was > 200 µM.
The corresponding values for `N#CC(C#N)=CN1CCOCC1` are > 200 µM and > 200 µM.
In the same order, the values of `CCN(CC)CCOc1ccc2c(c1)C(=O)c1cc(OCCN(CC)CC)ccc1-2` are > 200 µM and 12.3 µM.
The corresponding values for `O=C(Nc1ccc(F)c(Cl)c1)Nc1cc(Cl)ccc1SSc1ccc(Cl)cc1NC(=O)Nc1ccc(F)c(Cl)c1` are > 66.1 µM and 11.7 µM.
Turning to `CN(CCSCC(N)C(=O)O)CCSCC(N)C(=O)O` (stereo not drawn), the EC50 was > 87.1 µM and the IC50 was > 87.1 µM.
As to `O=C(O)Cc1cccc2c(=O)c(-c3ccccc3)coc12`, the EC50 was > 200 µM and the IC50 is > 200 µM.
As for `O=C(Nc1nc(=S)[nH][nH]1)C(=O)C1C(=O)Nc2ccccc2S1=O` (stereo not drawn), the EC50 is > 372 µM and the IC50 was > 372 µM.
As for `O=C(N/C(=C\c1ccc(/C=C(\NC(=O)c2ccccc2)c2nc3ccccc3[nH]2)cc1)c1nc2ccccc2[nH]1)c1ccccc1`, the outcome was inactive.
Regarding `COC12[C@@H]3N[C@@H]3CN1C1=C(C(=O)C(NCCSSCCNC3=C(C)C(=O)C4=C(C3=O)C(COC(N)=O)[C@]3(OC)C5N[C@@H]5CN43)=C(C)C1=O)[C@@H]2COC(N)=O` (stereo partly drawn), the concentration giving a half-maximal response (EC50) was > 200 µM and the IC50 is 0.0631 µM.
In the same order, the values of `Nc1ncc(Sc2ccccc2C(=O)O)s1` are > 200 µM and > 200 µM.
In the same order, the values of `c1ccc2c(c1)oc1cc3c(cc12)ncc1cccn13` are > 200 µM and > 200 µM.
In the same order, the values of `O=C(O)c1cc(O)ccc1O` are > 200 µM and > 200 µM.
For the compound `CCOC(=O)[C@@H]1ON2OC(OC3CCCC3(c3ccccc3)c3ccccc3)C(OC(C)=O)[C@H]3OC(=O)[C@@H]1C32` (stereo partly drawn), the EC50 was > 200 µM and the IC50 was > 200 µM.
On to `CCOC(=O)c1cc(OC(=O)CC)c2c(OC)ccc(OC)c2c1`, for which the outcome was inactive.
Consider `CN(C)N(CCO)CCO`, for which the EC50 is > 200 µM and the IC50 was > 200 µM.
As to `CCCCN(S(=O)(=O)c1ccccc1)S(=O)(=O)c1ccccc1`, the EC50 is > 200 µM and the IC50 is > 200 µM.
On to `Nc1nc(=O)n(C2OC(CO)CC2F)cc1Cl` (stereo not drawn), for which the EC50 was > 191 µM and the IC50 is > 191 µM.
In the case of `CCOC(=O)C1=C2c3cccnc3-c3ccccc3N2C(C(=O)OCC)C1C(=O)OCC` (stereo not drawn), the outcome was inactive.
Regarding `Fc1cccc(C=NC23CC4CC(CC(C4)C2)C3)c1`, the EC50 is > 52.5 µM and the IC50 was > 52.5 µM.
On to `c1csc(-c2ccsc2-c2cccs2)c1`, for which the EC50 is > 200 µM and the half-maximal inhibitory concentration (IC50) was 97.7 µM.
As for `N#CC1(C2CC(=O)N(c3ccccc3)C2=O)CCCCC1=O` (stereo not drawn), the outcome was inactive.
In the case of `CC(CCC(=O)O)[C@H]1CCC2[C@H]3C(CC[C@@]21C)[C@@]1(C)CCC(O)C[C@H]1C[C@@H]3O` (stereo partly drawn), the EC50 was > 200 µM and the IC50 was > 100 µM.
In the same order, the values of `N=c1nc(N)n2c(N)nc(=N)n12` are > 155 µM and > 155 µM.
Regarding `O=C(Nc1ccc(NC(=O)c2ccc(C3=NCCN3)cc2)cc1)Nc1ccc(C2=NCCN2)cc1`, the EC50 is > 200 µM and the IC50 came out at 50.1 µM.
In the same order, the values of `COC(=O)C1=NC(=N)N=C(C(=O)OC)C12C(=O)Cc1ccccc12` (stereo not drawn) are 339 µM and 398 µM.
The corresponding values for `O=C(/C=C(\O)C(=O)O)/C=C(\O)c1ccccc1` are > 200 µM and > 200 µM.
In the same order, the values of `O=C(CC(C(=O)c1cccs1)c1ccsc1)c1ccccc1` (stereo not drawn) are > 200 µM and 151 µM.
Take `O=c1ccc2ccc(OP(=O)(O)O)cc2o1`: the EC50 was > 200 µM and the IC50 was > 200 µM.
In the case of `Cn1c2ccccc2c(=NNc2ccc(C(=O)O)cc2)c2ccccc21`, the EC50 was > 200 µM and the IC50 worked out at 13.8 µM.
As for `CCN(CC)C1C2=C(CCCC2)OS(=O)(=O)C1c1ccccc1` (stereo not drawn), the EC50 was > 40.7 µM and the IC50 is > 40.7 µM.

One may read the EC50 as the concentration at which the effect is half-maximal. Broadly, the IC50 is the midpoint of a concentration-inhibition curve. Low readings indicate greater potency in that assay, high ones weaker potency in that assay.
